# Reference: US9624215B2, “Amine derivative or salt thereof” (TOYAMA CHEMICAL CO., LTD., priority 2012, dated 2017)
# Columns and labels:
# [1] = system: normal human neonatal foreskin epidermal keratinocytes (NHEK-F); assay: Cell proliferation inhibition test; assay type: cell-based; details: Keratinocyte, 72 h, NHEK-F cells, three days incubation, ATPlite or CellTiterGlo, read-out: IC50 (concentration of the compound at which the cell count is reduced by 50%)
# In short: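 IC50 is the compound level halving cell count relative to untreated wells, with counts from ATP-based luminescence (ATPlite or CellTiterGlo). Readout followed 3 days of compound exposure of overnight-attached neonatal foreskin keratinocytes (2×10^3/well, Humedia-EG2 medium).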
# [2] = system: TPA-induced ear edema and acanthosis in Balb/c mice; assay: Mouse TPA-induced ear-swelling model; assay type: in vivo; details: topical, 240 h, 1% w/v solution, 20 μL applied to ear once a day from day 0 to day 9, female Balb/c mice, read-out: Inhibition rate of change in ear thickness on day 10
# Protocol: Seven-week-old female Balb/c mice (Charles River Laboratories Japan) were used. 20 μL of a 20 ng/mL solution of TPA (Wako Pure Chemical Industries, 162-23591) dissolved in 5% DMSO/acetone was applied to the outer side of the mouse ear on day 0, day 2, day 4, day 7 and day 9 to induce ear edema and acanthosis. The test compound was dissolved in a 5% DMSO/acetone solution (concentration: 1% w/v) and 20 μL of the resulting solution was applied to the outer side of the ear once a day from day 0 to day 9. For the control group, a 5% DMSO/acetone solution was similarly applied. The TPA solution and the test compound solution were mixed and applied on the days for TPA application (day 0, day 2, day 4, day 7 and day 9). The ear thickness was chronologically measured on days 0-4 and days 7-10 using a micrometer (Mitutoyo, MDC-25MJT). The change in ear thickness and the inhibition rate were determined by the following formulas. Change in ear thickness=(ear thickness measured on day 10)−(ear thickness measured on day 0 before TPA application) Inhibition rate (%)=100−(change in ear thickness for test compound group/change in ear thickness for control group)×100
# [3] = system: TNFα production in LPS-stimulated Raw264.7 cells; assay: TNFα production inhibition test; assay type: cell-based; details: Mus musculus, test compound 1 μmol/L, LPS 1 μg/mL, 16 hours, ELISA, read-out: Inhibition rate of TNFα production
# Protocol: 7×10^4 mouse macrophage-derived cell line Raw264.7 cells were suspended in 100 μL of RPMI1640 medium containing 10% fetal bovine serum, plated in a 96-well plate and incubated overnight. The culture supernatant was removed and the test compound diluted in RPMI1640 medium containing 1% fetal bovine serum (final concentration: 1 μmol/L) was added. One hour after the addition, LPS (B4:0111) (Sigma-Aldrich, L2630) was added to a final concentration of 1 μg/mL. 16 hours after the stimulation, the culture supernatant was collected and the amount of TNFα produced in the culture supernatant was determined using ELISA kit (R&D Systems, MTA00B).
# The inhibition rate was calculated from the following formula. Inhibition rate (%)=100−(amount of TNFα produced in the presence of test compound/amount of TNFα produced in the absence of test compound)×100
Structure (SMILES),IC50 [1] [µM],inhibition in vivo at 1 % strength [2] [%],inhibition at 1 µM [3] [%]
"O=C(O)c1cc(Cl)ccc1Nc1cccc2c1ccn2-c1ccccc1 [Example 275, 5-chloro-2-((1-phenyl-1H-indol-4-yl)amino)benzoic acid]",≤ 0.01,≥ 20,≥ 50
"O=C(O)c1cc(C2CC2)ccc1Nc1ccc2c(cnn2Cc2ccccc2)c1 [Example 29, 2-((1-benzyl-1H-indazol-5-yl)amino)-5-cyclopropylbenzoic acid]",≤ 0.01,≥ 20,≥ 50
"O=C(O)c1cc(C2CC2)ccc1Nc1ccc2c(ccn2Cc2cccc(OCC(F)(F)F)c2)c1 [Example 35, 5-cyclopropyl-2-((1-(3-(2,2,2-trifluoroethoxyl)benzyl)-1H-indol-5-yl)amino)benzoic acid]",≤ 0.01,≥ 20,≥ 50
"O=C(O)c1cc(C2CC2)cnc1Nc1ccc2c(c1)sc(=O)n2Cc1ccccc1 [Example 75, 2-((3-benzyl-2-oxo-2,3-dihydrobenzo[d]thiazol-6-yl)amino)-5-cyclopropylnicotinic acid]",≤ 0.01,≥ 20,≥ 50
"O=C(O)c1cc(C2CC2)ccc1Nc1ccc2c(ccn2Cc2ccccc2)c1 [Example 94, 2-((1-benzyl-1H-indol-5-yl)amino)-5-cyclopropylbenzoic acid]",≤ 0.01,≥ 20,≥ 50
"O=C(O)c1cc(C2CC2)cnc1Nc1ccc2c(ccn2Cc2ccccc2)c1 [Example 37, 2-((1-benzyl-1H-indol-5-yl)amino)-5-cyclopropylnicotinic acid]",≤ 0.01,≥ 20,≥ 50
"O=C(O)c1cc(Cl)ccc1Nc1ccc2c(c1)CCN2c1ccccc1 [Example 283, 5-chloro-2-((1-phenylindolin-5-yl)amino)benzoic acid]",≤ 0.01,–,≥ 50
"O=C(O)c1cc(C2CC2)ccc1Nc1ccc2c(ccn2C(=O)c2ccccc2)c1 [Example 202, 2-((1-benzoyl-1H-indol-5-yl)amino)-5-cyclopropylbenzoic acid]",≤ 0.01,–,≥ 50
"O=C(O)c1cc(C2CC2)cnc1Nc1ccc2c(ccn2-c2ccccc2)c1 [Example 39, 5-cyclopropyl-2-((1-phenyl-1H-indol-5-yl)amino)nicotinic acid]",≤ 0.01,≥ 20,≥ 50
"Cn1c(=O)n(Cc2ccccc2)c2ccc(Nc3ccc(Cl)cc3C(=O)O)cc21 [Example 65, 2-((1-benzyl-3-methyl-2-oxo-2,3-dihydro-1H-benzo[d]imidazol-5-yl)amino)-5-chlorobenzoic acid]",0.1 to 1,–,≥ 50
"O=C(O)c1cc(Cl)ccc1Nc1ccc2c(ccn2-c2ccc(F)cc2)c1 [Example 331, 5-chloro-2-((1-(4-fluorophenyl)-1H-indol-5-yl)amino)benzoic acid]",≤ 0.01,–,≥ 50
"O=C(O)c1nc(C2CC2)cnc1Nc1ccc2c(ccn2Cc2ccccc2)c1 [Example 71, 3-((1-benzyl-1H-indol-5-yl)amino)-6-cyclopropylpyrazine-2-carboxylic acid]",≤ 0.01,≥ 20,≥ 50
"O=C(O)c1cc(C2CC2)ccc1Nc1ccc2c(ccn2-c2ccccc2)c1 [Example 59, 5-cyclopropyl-2-((1-phenyl-1H-indol-5-yl)amino)benzoic acid]",≤ 0.01,–,≥ 50
"O=C(O)c1cc(Cl)ccc1Nc1ccc2c(c1)ncc(=O)n2Cc1ccccc1 [Example 69, 2-((1-benzyl-2-oxo-1,2-dihydroquinoxalin-6-yl)amino)-5-chlorobenzoic acid]",0.1 to 1,–,≥ 50
"O=C(O)c1cc(Cl)ccc1Nc1ccc2c(c1)sc(=O)n2Cc1ccccc1 [Example 67, 2-((3-benzyl-2-oxo-2,3-dihydrobenzo[d]thiazol-6-yl)amino)-5-chlorobenzoic acid]",0.01 to 0.1,–,≥ 50
"O=C(O)c1cc(C(F)(F)F)ccc1Nc1ccc2c(ccn2Cc2ccccc2)c1 [Example 32, 2-((1-benzyl-1H-indol-5-yl)amino)-5-(trifluoromethyl)benzoic acid]",≤ 0.01,≥ 20,≥ 50
"O=C(O)c1cc(Cl)ccc1Nc1ccc2c(ccn2Cc2ccccc2)c1 [Example 2, 2-((1-benzyl-1H-indol-5-yl)amino)-5-chlorobenzoic acid]",≤ 0.01,–,≥ 50
"Cc1ccc(-n2ccc3cc(Nc4ccc(C5CC5)cc4C(=O)O)ccc32)nn1 [Example 102, 5-cyclopropyl-2-((1-(6-methylpyridazin-3-yl)-1H-indol-5-yl)amino)benzoic acid]",0.01 to 0.1,–,≥ 50
"O=C(O)c1cc(Cl)cnc1Nc1ccc2c(ccn2Cc2ccccc2)c1 [Example 90, 2-((1-benzyl-1H-indol-5-yl)amino)-5-chloronicotinic acid]",0.01 to 0.1,≥ 20,≥ 50
"O=C(O)c1cc(Cl)ccc1Nc1ccc2c(ccn2Cc2cccc(OC(F)F)c2)c1 [Example 277, 5-chloro-2-((1-(3-(difluoromethoxy)benzyl)-1H-indol-5-yl)amino)benzoic acid]",≤ 0.01,–,≥ 50
"Cn1c(=O)n(-c2ccccc2)c2ccc(Nc3ccc(C4CC4)cc3C(=O)O)cc21 [Example 78, 5-cyclopropyl-2-((3-methyl-2-oxo-1-phenyl-2,3-dihydro-1H-benzo[d]imidazol-5-yl)amino)benzoic acid]",0.01 to 0.1,–,≥ 50
"COCCOc1cccc(Cn2ccc3cc(Nc4ccc(Cl)cc4C(=O)O)ccc32)c1 [Example 298, 5-chloro-2-((1-(3-(2-methoxyethoxyl)benzyl)-1H-indol-5-yl)amino)benzoic acid]",≤ 0.01,–,≥ 50
"CC(C)n1ccc2cc(Nc3ccc(C4CC4)cc3C(=O)O)ccc21 [Example 112, 5-cyclopropyl-2-((1-isopropyl-1H-indol-5-yl)amino)benzoic acid]",≤ 0.01,–,≥ 50
"CCCCn1ccc2cc(Nc3ccc(Cl)cc3C(=O)O)ccc21 [Example 255, 2-((1-butyl-1H-indol-5-yl)amino)-5-chlorobenzoic acid]",0.01 to 0.1,–,≥ 50
